Reference: ChEMBL document CHEMBL1145579, “Development of potent and selective small-molecule human Urotensin-II antagonists” (Bioorg Med Chem Lett, 2008)
pEC50, pIC50, pKi: −log10 of the molar value.

Assays:
Cytochrome P450 2D6 = Cytochrome P450 2D6 (Homo sapiens, UniProt P10635); assay: Inhibition of CYP2D6; assay type: ADME
[1] = Binding affinity at batrachotoxinin sensitive Sodium channel in rat brain; assay type: tissue-based
Cytochrome P450 3A4 = Cytochrome P450 3A4 (Homo sapiens, UniProt P08684)
Chain of Cytochrome P450 3A4 (P08684 whole entry): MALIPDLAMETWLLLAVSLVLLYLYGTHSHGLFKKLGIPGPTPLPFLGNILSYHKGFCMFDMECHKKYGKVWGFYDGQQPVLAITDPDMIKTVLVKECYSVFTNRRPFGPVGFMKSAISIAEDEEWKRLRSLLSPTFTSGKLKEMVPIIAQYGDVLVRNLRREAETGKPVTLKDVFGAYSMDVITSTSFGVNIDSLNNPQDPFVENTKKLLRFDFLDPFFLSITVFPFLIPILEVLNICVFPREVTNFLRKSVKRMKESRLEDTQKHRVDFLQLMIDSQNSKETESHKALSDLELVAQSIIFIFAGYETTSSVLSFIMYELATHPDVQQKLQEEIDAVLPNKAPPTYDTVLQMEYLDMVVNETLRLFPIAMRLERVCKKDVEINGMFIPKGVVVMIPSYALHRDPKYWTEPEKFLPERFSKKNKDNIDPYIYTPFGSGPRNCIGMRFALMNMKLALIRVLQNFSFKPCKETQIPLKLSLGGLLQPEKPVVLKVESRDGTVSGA

[2] = biological target: Kappa-type opioid receptor (Homo sapiens, UniProt P41145); assay: Agonist activity at kappa opioid receptor; assay type: functional
Chain of Kappa-type opioid receptor (P41145 whole entry): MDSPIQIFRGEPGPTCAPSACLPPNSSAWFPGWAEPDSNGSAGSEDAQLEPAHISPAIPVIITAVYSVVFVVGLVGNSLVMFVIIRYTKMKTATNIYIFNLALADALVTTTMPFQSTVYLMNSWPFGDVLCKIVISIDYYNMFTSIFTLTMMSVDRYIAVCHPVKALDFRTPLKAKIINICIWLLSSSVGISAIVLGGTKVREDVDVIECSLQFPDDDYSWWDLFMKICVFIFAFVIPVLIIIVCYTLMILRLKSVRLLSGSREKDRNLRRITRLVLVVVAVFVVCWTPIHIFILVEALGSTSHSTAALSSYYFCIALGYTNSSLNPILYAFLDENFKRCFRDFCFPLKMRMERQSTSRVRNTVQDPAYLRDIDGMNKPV

Urotensin-2 receptor = biological target: T1, Urotensin-2 receptor (Homo sapiens, UniProt Q9UKP6); assay: Displacement of [125I]hU-2 from human recombinant Urotensin 2 receptor expressed in HEK293 cells; assay type: cell-based
T1 sequence (Q9UKP6 whole entry): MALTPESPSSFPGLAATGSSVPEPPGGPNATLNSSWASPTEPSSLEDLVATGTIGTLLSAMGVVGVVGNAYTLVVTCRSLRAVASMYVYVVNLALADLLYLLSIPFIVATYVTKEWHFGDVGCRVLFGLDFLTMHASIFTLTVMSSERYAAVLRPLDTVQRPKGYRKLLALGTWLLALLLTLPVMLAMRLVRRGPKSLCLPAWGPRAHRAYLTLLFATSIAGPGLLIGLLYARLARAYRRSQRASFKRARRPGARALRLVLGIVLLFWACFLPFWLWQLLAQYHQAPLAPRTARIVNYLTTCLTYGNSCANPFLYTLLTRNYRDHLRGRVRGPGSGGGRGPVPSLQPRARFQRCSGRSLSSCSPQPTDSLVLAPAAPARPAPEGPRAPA

[3] = Volume of distribution at steady state in rat at 2 mg/kg, iv and 4 mg/kg, po; assay type: ADME, organism-based; settings: in vivo, read-out: Vdss
[4] = Clearance in rat at 2 mg/kg, iv and 4 mg/kg, po; assay type: ADME, organism-based; settings: in vivo
[5] = Half life in rat at 2 mg/kg, iv and 4 mg/kg, po; assay type: ADME, organism-based; settings: in vivo
[6] = Cmax in rat at 2 mg/kg, iv and 4 mg/kg, po; assay type: ADME, organism-based; settings: in vivo
[7] = Oral bioavailability in rat at 4 mg/kg, po; assay type: ADME, organism-based; settings: in vivo
[8] = biological target: T2, Urotensin-2 receptor (Rattus norvegicus) (UniProt P49684); assay: Binding affinity at Urotensin 2 receptor in rat aorta.
T2 sequence (whole entry): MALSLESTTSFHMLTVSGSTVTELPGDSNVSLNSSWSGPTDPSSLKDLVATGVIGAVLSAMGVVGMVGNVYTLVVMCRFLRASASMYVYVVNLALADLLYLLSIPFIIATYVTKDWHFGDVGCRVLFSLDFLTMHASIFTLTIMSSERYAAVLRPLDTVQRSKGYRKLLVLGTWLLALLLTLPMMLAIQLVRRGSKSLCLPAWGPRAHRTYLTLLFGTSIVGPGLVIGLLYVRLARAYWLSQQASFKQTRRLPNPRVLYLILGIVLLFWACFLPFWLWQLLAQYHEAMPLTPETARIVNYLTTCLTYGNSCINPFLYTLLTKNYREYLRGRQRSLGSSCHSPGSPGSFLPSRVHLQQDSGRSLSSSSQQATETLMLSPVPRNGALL

Chain of Cytochrome P450 2D6 (P10635 whole entry): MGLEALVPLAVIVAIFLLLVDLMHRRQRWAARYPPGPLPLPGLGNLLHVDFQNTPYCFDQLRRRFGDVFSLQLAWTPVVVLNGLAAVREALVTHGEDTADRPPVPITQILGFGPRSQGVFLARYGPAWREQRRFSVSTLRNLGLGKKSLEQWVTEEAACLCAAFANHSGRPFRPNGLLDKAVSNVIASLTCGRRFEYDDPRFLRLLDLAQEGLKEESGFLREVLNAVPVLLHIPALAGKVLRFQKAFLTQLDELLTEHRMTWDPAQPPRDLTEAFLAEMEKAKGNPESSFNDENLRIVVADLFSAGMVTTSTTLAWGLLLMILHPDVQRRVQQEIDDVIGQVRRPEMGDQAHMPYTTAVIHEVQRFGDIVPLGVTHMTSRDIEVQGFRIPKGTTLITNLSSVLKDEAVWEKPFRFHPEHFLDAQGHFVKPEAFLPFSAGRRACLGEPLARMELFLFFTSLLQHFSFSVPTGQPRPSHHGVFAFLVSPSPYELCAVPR

O=C(Cn1c(=O)cnc2cc(Cl)c(Cl)cc21)N1CCCC(c2ccccc2)C1CN1CCOCC1 (racemic)
pIC50 (Cytochrome P450 2D6): 4.68 | pKi [1]: 4.74 | pIC50 (Cytochrome P450 3A4): 6.00 | pEC50 [2]: 4.82 | pKi (Urotensin-2 receptor): 8.52

O=C(Cn1c(=O)cnc2cc(Cl)c(Cl)cc21)N1CCCC(c2ccccc2)C1CN1CCCC1 (racemic)
pIC50 (Cytochrome P450 2D6): 5.54 | pKi [1]: 6.03 | pIC50 (Cytochrome P450 3A4): 5.92 | pEC50 [2]: 5.49 | pKi (Urotensin-2 receptor): 9.22

COCCN(CC(=O)N1CCCC(c2ccccc2)C1CN1CCOCC1)c1ccc(Cl)c(Cl)c1 (racemic)
pIC50 (Cytochrome P450 2D6): 5.49 | pKi [1]: 5.49 | pIC50 (Cytochrome P450 3A4): 6.32 | pEC50 [2]: 5.00 | pKi (Urotensin-2 receptor): 6.89

Cc1cc2ncc(=O)n(CC(=O)N3CCCC(c4ccccc4)C3CN3CCOCC3)c2cc1C (racemic)
pIC50 (Cytochrome P450 2D6): 5.17 | pKi [1]: 5.16 | pIC50 (Cytochrome P450 3A4): 5.57 | pEC50 [2]: 4.52 | pKi (Urotensin-2 receptor): 8.30

COCCN(CC(=O)N1CCCC(c2ccccc2)C1CN1CCCC1)c1ccc(Cl)c(Cl)c1 (stereo not given)
pIC50 (Cytochrome P450 2D6): 6.09 | pKi [1]: 6.02 | pEC50 [2]: 6.00 | Vd [3]: 27 L/kg | clearance [4]: 7.2 L/h/kg | half-life [5]: 2.8 h | Cmax [6]: 0.095 µg/mL | bioavailability [7]: 30% | pKi (Urotensin-2 receptor): 8.10

O=C(Cn1c(=O)oc2ccc(Cl)cc21)N1CCCC(c2ccccc2)C1CN1CCOCC1 (racemic)
pIC50 (Cytochrome P450 2D6): 5.46 | pKi [1]: 6.14 | pIC50 (Cytochrome P450 3A4): 5.89 | pEC50 [2]: 5.89 | pKi (Urotensin-2 receptor): 7.40

O=C(Cn1c(=O)oc2ccc(Cl)cc21)N1CCCC(c2ccccc2)C1CN1CCCC1 (racemic)
pIC50 (Cytochrome P450 2D6): 5.66 | pKi [1]: 6.82 | pIC50 (Cytochrome P450 3A4): 5.68 | pEC50 [2]: 5.30 | pKi (Urotensin-2 receptor): 8.30

N#CCN(CC(=O)N1CCCC(c2ccccc2)C1CN1CCCC1)c1ccc(Cl)c(Cl)c1 (racemic)
pIC50 (Cytochrome P450 2D6): 5.64 | Kb [8]: 0.005 µM | pKi [1]: 5.80 | pIC50 (Cytochrome P450 3A4): 5.96 | pEC50 [2]: 6.10 | Vd [3]: 27 L/kg | clearance [4]: 6 L/h/kg | half-life [5]: 3.2 h | Cmax [6]: 0.12 µg/mL | bioavailability [7]: 12% | pKi (Urotensin-2 receptor): 8.70

O=C1COc2cc(Cl)c(Cl)cc2N1CC(=O)N1CCCC(c2ccccc2)C1CN1CCCC1 (racemic)
pIC50 (Cytochrome P450 2D6): 5.80 | pKi [1]: 6.17 | pIC50 (Cytochrome P450 3A4): 5.74 | pEC50 [2]: 6.30 | pKi (Urotensin-2 receptor): 9.40

CN(CC(=O)N1CCCC(c2ccccc2)C1CN1CCCC1)c1ccc(Cl)c(Cl)c1 (racemic)
pIC50 (Cytochrome P450 2D6): 6.12 | Kb [8]: 0.028 µM | pKi [1]: 5.60 | pIC50 (Cytochrome P450 3A4): 5.85 | pEC50 [2]: 5.49 | Vd [3]: 23 L/kg | clearance [4]: 5.82 L/h/kg | half-life [5]: 3.8 h | Cmax [6]: 0.1 µg/mL | bioavailability [7]: 0% | pKi (Urotensin-2 receptor): 7.80

N#CCN(CC(=O)N1CCCC(c2ccccc2)C1CN1CCOCC1)c1ccc(Cl)c(Cl)c1 (racemic)
pIC50 (Cytochrome P450 2D6): 5.43 | pKi [1]: 5.40 | pIC50 (Cytochrome P450 3A4): 6.31 | pEC50 [2]: 5.30 | Vd [3]: 8 L/kg | clearance [4]: 3.6 L/h/kg | half-life [5]: 2.6 h | Cmax [6]: 0.37 µg/mL | bioavailability [7]: 7% | pKi (Urotensin-2 receptor): 8.22

CN(CC(=O)N1CCCC(c2ccccc2)C1CN1CCOCC1)c1ccc(Cl)c(Cl)c1 (racemic)
pIC50 (Cytochrome P450 2D6): 5.64 | pKi [1]: 5.80 | pEC50 [2]: 6.00 | pKi (Urotensin-2 receptor): 7.10

Cc1cc2ncc(=O)n(CC(=O)N3CCCC(c4ccccc4)C3CN3CCCC3)c2cc1C (racemic)
pIC50 (Cytochrome P450 2D6): 5.08 | pKi [1]: 5.85 | pIC50 (Cytochrome P450 3A4): 5.17 | pEC50 [2]: 5.20 | pKi (Urotensin-2 receptor): 9.00

Cc1cc2c(cc1C)N(CC(=O)N1CCCC(c3ccccc3)C1CN1CCCC1)C(=O)CO2 (racemic)
pIC50 (Cytochrome P450 2D6): 5.29 | pKi [1]: 6.41 | pIC50 (Cytochrome P450 3A4): 5.41 | pEC50 [2]: 5.30 | pKi (Urotensin-2 receptor): 9.40

O=C(Cn1c(=O)sc2ccc(Cl)cc21)N1CCCC(c2ccccc2)C1CN1CCOCC1 (racemic)
pIC50 (Cytochrome P450 2D6): 5.10 | pKi [1]: 5.46 | pIC50 (Cytochrome P450 3A4): 6.17 | pEC50 [2]: 5.10 | Vd [3]: 26 L/kg | clearance [4]: 7.8 L/h/kg | half-life [5]: 5 h | Cmax [6]: 0.16 µg/mL | bioavailability [7]: < 1% | pKi (Urotensin-2 receptor): 8.22

O=C1COc2cc(Cl)c(Cl)cc2N1CC(=O)N1CCCC(c2ccccc2)C1CN1CCOCC1 (racemic)
pIC50 (Cytochrome P450 2D6): 5.32 | pKi [1]: 5.89 | pIC50 (Cytochrome P450 3A4): 6.14 | pEC50 [2]: 5.10 | pKi (Urotensin-2 receptor): 8.70

O=C(Cn1c(=O)sc2ccc(Cl)cc21)N1CCCC(c2ccccc2)C1CN1CCCC1 (racemic)
pIC50 (Cytochrome P450 2D6): 5.77 | pKi [1]: 6.48 | pIC50 (Cytochrome P450 3A4): 6.00 | pEC50 [2]: 5.89 | pKi (Urotensin-2 receptor): 8.92
